In article PMC9818267, “Brain Natriuretic Peptide Protects Cardiomyocytes from Apoptosis and Stimulates Their Cell Cycle Re-Entry in Mouse Infarcted Hearts” (Cells, 2022):
No end group written: not given here.

Key:
cardiomyocytes (CMs) [1] = assay: qRT-PCR on CMs isolated from treated hearts; format: in vivo, mouse
Description: (§1) BNP was injected into infarcted adults, and unmanipulated neonatal and adult mice. Directly after surgery, NaCl (saline) or BNP (1.3 µg/20 g in 20 µL) was injected into the left ventricle cavity. At 24 h after MI, mice were intraperitoneal (ip) injected with BNP (2 µg/20 g mice) or saline every 2 days. C57BL/6 mice were sacrificed 1- and 14 days post-MI and Myh6 MerCreMer mice were sacrificed 14 days post-MI (Figure 1A). Neonatal C57BL/6 mice (3 days after birth) were injected ip with NaCl or BNP every two days (1 µg/2 g; Bachem; synthetic mouse BNP (1–45) peptide (catalog number H-7558)). Mice were sacrificed 11 days after birth (Figure 1B). Eight week old C57 BL/6 mice or Myh6 MerCreMer unmanipulated mice were injected ip with BNP (2 µg/20 g mice) or NaCl every two days (Figure 1C). Two weeks after the first injection, mice were sacrificed. To assess for the implication of the ERK signaling pathway in the BNP effect on CMs, PD0325901 (60 µg/20 g mice in 80 µL) was administered by gavage in adult unmanipulated mice 1 h before BNP injection (2 µg/20 g mice).
(§2) CM isolations were performed thanks to the Langendorff-Free method. […] Thereafter, the heart was removed from the chest and the left ventricle was perfused with enzymatic solution containing collagenase II (120 U/mL), collagenase IV (120 U/mL) (Worthington, Biochemical Corporation, USA) and protease XIV (0.05 mg/mL or 0.175 U/mL) (Sigma-Aldrich, Merck, Darmstadt, Germany). In each experiment, a full digestion of the heart was obtained. After digestion, cardiac cells were dissociated by gentle pipetting, filtered and collected after 25 min sedimentation. For infarcted hearts, the tissue was separated into the three zones (ZI, BZ and RZ). The three different areas were weighted before gentle pipetting.
qRT-PCR were performed using the SYBR Premix Ex Taq polymerase (Takara Bio Inc., Shiga, Japan) with the ViiA^TM7 Instrument (Applied Biosystems, Waltham, MA, USA). Total RNA was isolated from heart tissue, CM cell cultures and isolated CMs using TRI-Reagent (Zymo Research, Orange County, CA, USA). cDNA was synthesized from RNA using PrimeScript RT reagent kit (Takara Bio Inc.). Polymerase chain reactions (PCR) were performed using the SYBR Premix Ex Taq polymerase (Takara Bio Inc.) with the ViiA^TM7 Instrument (Applied Biosystems). Results were obtained after 40 cycles of a thermal step protocol consisting of an initial denaturation of 95 °C (1 s), followed by 60 °C (20 s) of elongation (α-skeletal actin has an elongation time of 30 s at 60 °C). The sequences of primers were reported in Supplementary File S2. All results were normalized with the 18S housekeeping gene (Δ CT values). Means of ΔΔ CT (Δ CTBNP–Δ CTsaline) values (versus untreated cells or NaCl treated mice) were calculated and results were represented as 2^−ΔΔCT. Statistics were performed on ΔΔ CT individual values. SEM fold increase was calculated using 2^−ΔΔ CT high values − 2^−means of ΔΔCT [13].

neonatal CMs = assay: Neonatal cardiomyocyte culture treated with BNP; format: cell-based, mouse
Description: Neonatal (1–2 days) C57BL/6 pups were sacrificed and CMs were isolated by enzymatic digestion according to the method previously described. Briefly, the chest was opened and the heart removed. After separation of the atria from the rest of the heart, the ventricles were minced and digested with 0.45 mg/mL collagenase (Worthington, Biochemical Corporation, Lakewood, NJ, USA) and 1 mg/mL pancreatin (Sigma). After 3 rounds of digestion, cells were plated 2 times for 45 min in order to separate CMs (non-adherent cells) from the non-myocyte cells (NMCs). Thereafter, CMs were plated on gelatine (0.1%) coated plates and cultured in 3:1 mixture of DMEM and Medium 199 (Invitrogen Corp, San Diego, CA, USA) supplemented with 10% horse serum (Oxoid), 5% fetal bovine serum (Invitrogen), 10 mM Hepes, 100 U/mL penicillin G. To homogenize the experiment, 70,000 CMs were plated per well.
Immediately after plating, neonatal CMs were treated or not with BNP for 14 days. To inhibit NMC proliferation and to work on 95% pure CMs, cells were exposed the first 7 days of culture to cytosine-β-D-arabinofuranoside (AraC, 1 mg/mL). After 7 days of culture, AraC was removed until 14 days of culture. CMs were cultured in a hypoxia chamber (Stem Cell Technologies) flushed with 3% O2/5% CO2/92% N2 (Carbagas). Indeed, we previously observed that low oxygen concentration stimulates CM dedifferentiation and proliferation. Medium was replaced 1–2 times/week.
CMs were treated with 3 different concentrations of BNP: 10 nM, 100 nM and 1000 nM and compared to untreated cells. Quantitative RT-qPCR, Western blot analysis as well as immunohistochemistry studies were performed after 14 days of culture.

phospholamban (PLB) = assay: Western blot pPLB/PLB in adult CMs stimulated in vitro; format: cell-based, mouse; details: adult CMs stimulated with BNP for 2–3 h in vitro, vs untreated
Description: as §2
Total proteins were extracted from CMs isolated from adult infarcted and unmanipulated neonatal and adult hearts. Proteins were transferred to nitrocellulose membranes (Biorad) before incubation with primary antibodies overnight at 4 °C. Secondary antibodies were added 1 h at RT in the dark (Supplementary File S1). The signal was detected and quantified with the Odyssey infrared imaging system (LI-COR. Biosciences, Bad Homburg, Germany). All results were normalized to the tubulin protein level or to the total protein level thanks to stainings with the Revert 700 Total protein Stain (LI-COR).

ERK = assay: Western blot pERK/ERK in CMs isolated from BNP-treated hearts; format: in vivo, mouse; details: CMs isolated from BNP-treated adult unmanipulated hearts (injection 2–3 h before isolation), vs saline
Description: as §1
CM isolations were performed thanks to the Langendorff-Free method. […]
Total proteins were extracted from CMs isolated from adult infarcted and unmanipulated neonatal and adult hearts. […] The signal was detected and quantified with the Odyssey infrared imaging system (LI-COR. Biosciences, Bad Homburg, Germany). […]

cardiomyocytes (CMs) [2] = assay: qRT-PCR on CMs isolated from treated hearts; format: in vivo, mouse; details: CMs from border area of infarcted hearts 10 days after surgery, BNP vs saline
[3] = cited from earlier work
[4] = CMs from border area of infarcted hearts, BNP vs saline
[5] = CMs from unmanipulated adult hearts, BNP vs saline
[6] = neonatal CMs in vitro, BNP vs untreated
[7] = neonatal CMs in vitro, BNP vs untreated, 14 days

## Brain Natriuretic Peptide (SQGSTLRVQQRPQNSKVTHISSCFGHKIDRIGSVSRLGCNALKLL; not fully specified; ends and bridges not checked; UniProt P40753 77-121, looked up) [BNP, synthetic mouse BNP (1–45) peptide (Bachem, catalog number H-7558)]
Cardiomyocytes (CMs) [1]; CMs from BZ of BNP-treated infarcted hearts, vs saline
  hearts with increased cyclin A2 and B2 mRNA in isolated CMs: 4 out of 8
Cardiomyocytes (CMs) [1]; CMs from RZ of BNP-treated infarcted hearts (data not shown)
  mRNA expression of myh7, acta1, hif1α: No difference
Cardiomyocytes (CMs) [1]; [4]
  acta1 mRNA level increase: 2 ×
  hif1α mRNA level increase: 1.4 ×
Cardiomyocytes (CMs) [1]; CMs from neonatal BNP-treated hearts, vs saline
  hif1α mRNA level increase: 1.5 ×
Cardiomyocytes (CMs) [1]; [5]
  acta1 mRNA level increase: 1.4 ×
  hif1α mRNA level increase: 1.8 ×
  myh7 mRNA level increase: 1.9 ×
Cardiomyocytes (CMs) [1]; CMs isolated from all neonatal BNP-treated hearts, vs saline
  mRNAs coding for cyclins E1, A2 or B2: increased levels
Cardiomyocytes (CMs) [1]; unmanipulated adult BNP-treated hearts, vs saline
  CM isolations with increased cyclin A2 or B2 mRNA: 5 out of 7
Neonatal CMs; 10 nM BNP, 14 days, 3% O2, vs untreated
  increase of number of CMs in culture: 18%
Neonatal CMs; BNP-treated neonatal CM cultures vs untreated
  number of small and mononucleated CMs: higher number
Neonatal CMs; [6]
  cyclin A2 mRNA increase: 40%
  cyclin B2 mRNA increase: 30%
  cyclin D1 mRNA increase: 50%
Neonatal CMs; [7]
  increase of percentage of CMs expressing Aurkb: 50%
  increase of percentage of CMs expressing Ki67: 23%
Phospholamban (PLB)
  pPLB/PLB ratio increase: 2.1 ×
ERK
  pERK/ERK ratio increase: 1.6 ×
Cardiomyocytes (CMs) [2]
  myh7 mRNA level increase: 2.7 ×
[3]; healthy persons
  half-life in the circulation: about 18 min
[3]; patients with congestive heart failure
  half-life in the plasma: ~12 min
